The values that follow come from US6346633B1, “Anti-tumuor agents” (AstraZeneca AB, priority 1998, dated 2002).

Assay [1] concerns spheroidal aggregates of EMT6 murine breast cancer cells. In words: Test (c): growth inhibition of spheroidal aggregates of EMT6 cells in oxygenated culture medium. It is filed as cell-based. The following applies: Mus musculus, 2 hours treatment, stasis of spheroid growth during 2-3 weeks, read-out: stasis ED50. How it is done:
(c) An in vitro assay which determines the ability of a test compound to inhibit the growth in an oxygenated culture medium of spheroidal aggregates (˜400 microns in diameter) of EMT6 murine breast cancer cells. As the oxygen diffusion distance through tissue is approximately 120-150 microns, such spheroids have a chronically hypoxic central population of cells and a well oxygenated outer layer of cells. The multicellular spheroids were treated with test compounds for 2 hours as a well oxygenated suspension culture. The spheroids were subsequently washed free of test compound and selected spheroids were transferred to static culture so that the effect of treatment on volume growth could be measured. […]
EMT6 murine breast cells (obtained from P. R. Twentyman, MRC Oncology and Radiotherapeutics Unit, Cambridge, UK) were harvested from exponentially growing monolayer cultures and approximately 1×10^6 cells were used to inoculate a 500 ml spinner culture vessel containing Eagles minimal essential medium (200 ml; supplemented with 10% foetal calf serum, glutamate, non-essential amino acids, penicillin and streptomycin). […] The area of each spheroid was measured using an image analyser and the 24-well plates were transferred to a CO2 incubator at 37° C. The spheroids were then re-measured every 2-3 days for up to 21 days, with fresh culture medium (250 μl) being added to each well every 3 days. […]

Assay [2] has as its system T18 murine breast cancer cells. In words: Test (b): growth inhibition of T18 cells in culture under oxic conditions (MTT endpoint). To be noted: Mus musculus, 2 hours treatment, 90% air and 10% CO2, grown on for 6 days. Format: cell-based. How it is done: (b) An in vitro assay which determines the ability of a test compound to inhibit the growth of T18 murine breast cancer cells in cell culture under oxic conditions. The cells were grown in monolayer in 96 well plates and treated with compounds for 2 hours under an atmosphere of 90% air and 10% CO2. The cells were then grown on for 6 days at which time the extent of proliferation was assessed using a 3-(4,5-dimethylthiazol-2-yl)-2,5-diphenyltetrazolium bromide (MTT) endpoint. The test is similar to that described in J. Immunological Methods, 1983, 65, 55-63. The detailed methodology was as follows.
T18 murine breast tumour cells (derived from a spontaneous mammary tumour in the Balb/c mouse colony at Zeneca Pharmaceuticals, Mereside, Macclesfield, UK) were harvested from an exponentially growing monolayer culture. The cells were counted, diluted in RPMI 1640 culture medium (Gibco BRL, Life Technologies, Paisley, UK; supplemented with 15% foetal calf serum, glutamine, pyruvate, penicillin and streptomycin), and transferred to 96 well plates at 500 cells per 50 μl per well. […] The supernatant culture medium containing excess MTT was removed and DMSO (100 μl) was added to solubilise the formazan, the concentration of which was measured by determining the optical density at 540 nm. […]

The test system of assay [3] is T18 murine breast tumours. Nature of the assay: Test (d): in vivo growth delay of T18 tumours. Further details: species or system Balb/c mice. To be noted: single dose of approximately 50 mg/kg intraperitoneally. The text has this:
(d) An in vivo assay in a group of Balb/c mice which determines the ability of a test compound to delay the growth of T18 murine breast tumours. The detailed methodology was as follows:
T18 murine breast tumour tissue was routinely maintained by animal to animal passage. To prepare a batch of tumours for an experiment, tumour tissue was removed from several donor Balb/c mice and placed in saline. Outer tissue was removed and healthy looking regions of tumour were cut into approximately 1 mm pieces and implanted subcutaneously by trocar into the left flanks of anaesthetised female Balb/c mice. After 2-3 weeks, most of the implants had grown to approximately 8 mm in diameter. The animals were placed randomly into groups of 6-7, rejecting any with very large, or small, tumours. Each test compound was dissolved in DMSO and diluted with Cremophor EL followed by saline, to give a 1:1:3 mixture of DMSO, Cremophor EL and saline. Each test compound was administered by the intraperitoneal route as a single bolus dose (0.1 ml per 10 g body weight of each animal). Control animals received vehicle alone. All mice were weighed daily and the dimensions (length and width) of each tumour were measured every 2-3 days using vernier calipers. […] Growth curves were constructed and the effect of treatment was assessed using a growth delay endpoint.

What is called IC50 is the concentration that gives 50% inhibition. A high value points to weaker potency in that assay. As for `COCCC1=C(C)C(=O)C(C)=C(C(C)(C)CC(=O)Oc2ccc(N(CCCl)CCCl)cc2)C1=O` [Example 2, 4-[bis(2-chloroethyl)amino]phenyl 3-[2-(2-methoxyethyl)-3,5-dimethyl-1,4-benzoquinonyl]-3-methylbutyrate], the EC50 in assay [1] is around 6 µM. The IC50 in assay [2] is 4.8 µM. Besides, in assay [3], the growth delay result is “approximately 12 days”.
